Experimental data published in patent US20240254138A1, “TRICYCLIC PYRIMIDINES AS CYCLIN-DEPENDENT KINASE 7 (CDK7) INHIBITORS” (JANSSEN PHARMACEUTICA NV, priority 2021, published 2024).
Read-outs that look alike come from different tables or passages of the source.

What was measured:
[1] = test system: RNA Polymerase II Serine 5 phosphorylation in A549 cells overexpressing CDK7-mutant (C312S); test: Imaging-based cellular RNA PolII Ser5 phosphorylation assay in A549 cells overexpressing CDK7-mutant (C312S); assay type: cell-based, human; settings: RNA PolII Ser5 phosphorylation, averaged over all measurements; for IC50: Homo sapiens, A549, A549 cells overexpressing CDK7-mutant (C312S), read-out: CDK7_A549 mutant hCDK7(pIC50) (converted)
Excerpt: (§1) To evaluate inhibition of CDK7 kinase activity, a 384-well automated imaging assay was used. This assay detects Serine 5 phosphorylation on a unique heptapeptide sequence in the C-terminal domain of Rpb1 subunit of RNA polymerase II, the downstream substrate of CDK7. This heptapeptide sequence is repeated up to 52 times in the CTD of Rpb1.
(§2) A549 adenocarcinoma human alveolar basal epithelial cells (ATCC, CCL-185), rabbit Phospho-Rpb1 CTD (Ser5) antibody (D9N51 (Cell Signaling Technology)), DMEM (Sigma), Fetal Bovine Serum (Biowest), L-glutamine (Sigma), Penicillin/Streptomycin (Life Technologies), Sodium Pyruvate (Sigma), Hepes (Sigma), poly-D-lysine coated μclear 384 black plates (Greiner), formaldehyde (PolySciences), D-PBS (Sigma), Methanol (Sigma), Alexa Fluor 488 goat anti rabbit IgG secondary antibody (Life Technologies), HCS CellMask™ Deep Red stain (Life Technologies), Hoechst 33258 (Invitrogen).
(§3) RNA Polymerase II Serine 5 phosphorylation was detected using a specific rabbit Phospho-Rpb1 CTD (Ser5) antibody. A549 adenocarcinoma human alveolar basal epithelial cells were seeded in 20 μl medium (DMEM supplemented with 1% Fetal Bovine Serum (heat inactivated 30′ 56° C.), 2 mM L-glutamine, 50 U/ml penicillin 50 μg/ml streptomycin, 1 mM sodium pyruvate and 50 mM hepes) at 1000 cells/well and cultured in poly-D-lysine coated μclear 384 black plates for 20 hours at 37° C. and 5% CO2.
(§4) After incubation cells were challenged with compound for 3 hours at 37° C. and 5% CO2. DMSO was used as high control and as low control 10 μM of the following reference compound was used:
(§5) 40 nl of test compounds and controls were spotted in cell plates using Echo Liquid Handler (Echo 550, Labcyte). Incubation was followed by 20 minutes fixation with 20 μl 10% formaldehyde at room temperature. Medium/formaldehyde solution was removed, plates were washed 3 times with 30 μl D-PBS (w/o Ca^2+ and Ma^2+) and permeabilization was done by adding 20 μl ice cold methanol for 20 minutes. Cells were washed again 3 times with 30 μl D-PBS and 20 μl blocking buffer (25 ml fetal bovine serum in 500 ml D-PBS) was added for 1 hour.
(§6) After removing blocking buffer 20 μl 1/1000 primary antibody rabbit Phospho-Rpb1 CTD (Ser5) antibody was added which binds to the phosphorylated Serine5 of the heptapeptide sequences in the CTD of Rpb1. Primary antibody was removed, and plates were washed 3 times with 30 μl D-PBS followed by addition of 20 μl 1/2000 Alexa Fluor 488 goat anti rabbit IgG secondary antibody for final detection of Phospho-Rpb1 CTD (Ser5) together with 1/5000 HCS CellMask™ Deep Red stain for membrane staining and 1/5000 Hoechst 33258 for nucleus staining. Last, plates were washed 2 times with 30 μl D-PBS and wells were filled with 40 μL D-PBS, plates were sealed (Thermowell sealing tape) and stored at 4° C. until reading. Plates were read with Opera Phenix (Perkin Elmer) with 10× air objective. Data were calculated and analyzed in Phaedra.
(§7) IC50 values were calculated using the following formula: […]
(§8) Average value of all HC's and all LC's are used for normalizations.
(§9) A best-fit curve is fitted by a minimum sum of squares method to the plot of % Control vs. compound concentration. From this an IC50 value can be obtained. An estimate of the slope of the plot in terms of the Hill coefficient is also obtained.
In parallel this assay was performed in A549 cells overexpressing CDK7-mutant (C312S) to evaluate the effect of the covalent bond on potency and to screen for potential off-target effects. Mutation of Cysteine to Serine (C312S), a less nucleophilic amino acid, prevents CDK7 inhibitors from covalently binding to CDK7 and from inhibiting CDK7 activity in an irreversible manner. A stably transduced A549 cell pool was generated that overexpresses CDK7 mutant (C312S), but also expresses endogenous CDK7-WT. Covalent binders targeting the cysteine at position 312 will show a shift in potency in A549 cells overexpressing mutant C312S CDK7.

[2] = test system: RNA Polymerase II Serine 5 phosphorylation (Rpb1 CTD, downstream substrate of CDK7) in A549 cells; test: Imaging-based cellular RNA PolII Ser5 phosphorylation assay in A549 cells; assay type: cell-based, human; settings: Homo sapiens, A549, A549 cells, wild-type CDK7; RNA PolII Ser5 phosphorylation; averaged over all measurements; read-out: CDK7_A549 Wild-type CDK7 (pIC50) (converted)
Excerpt: as §1, §2, §3, §4, §5, §6, §7, §8, §9

[3] = target: CDK7/cyclinH/MAT1 trimeric complex (Homo sapiens, UniProt P50613); test: In vitro CDK7 assay, potency of irreversible covalent inhibitors (kinact/KI), coupled PK/LDH ADP readout at 340 nm
Chain of CDK7/cyclinH/MAT1 trimeric complex (P50613 whole entry): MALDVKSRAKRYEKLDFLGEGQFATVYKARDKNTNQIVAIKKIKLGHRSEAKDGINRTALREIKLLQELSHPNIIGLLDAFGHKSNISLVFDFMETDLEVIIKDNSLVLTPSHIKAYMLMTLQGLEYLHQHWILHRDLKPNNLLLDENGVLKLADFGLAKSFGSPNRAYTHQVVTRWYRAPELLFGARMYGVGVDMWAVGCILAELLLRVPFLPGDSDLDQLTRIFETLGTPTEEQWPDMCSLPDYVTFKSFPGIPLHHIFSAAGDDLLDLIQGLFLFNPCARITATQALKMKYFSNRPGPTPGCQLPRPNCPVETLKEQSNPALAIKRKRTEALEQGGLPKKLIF
Chain of CDK7/cyclinH/MAT1 trimeric complex (P51946 whole entry partner): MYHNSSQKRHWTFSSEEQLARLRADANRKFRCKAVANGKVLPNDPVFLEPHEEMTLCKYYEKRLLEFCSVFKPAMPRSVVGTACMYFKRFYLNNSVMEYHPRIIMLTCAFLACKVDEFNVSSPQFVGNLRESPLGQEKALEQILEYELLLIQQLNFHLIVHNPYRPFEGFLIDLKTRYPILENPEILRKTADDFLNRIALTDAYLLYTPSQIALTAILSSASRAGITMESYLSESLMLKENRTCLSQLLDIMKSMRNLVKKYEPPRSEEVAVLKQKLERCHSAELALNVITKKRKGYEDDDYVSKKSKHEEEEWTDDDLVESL
Chain of CDK7/cyclinH/MAT1 trimeric complex (P51948 whole entry partner): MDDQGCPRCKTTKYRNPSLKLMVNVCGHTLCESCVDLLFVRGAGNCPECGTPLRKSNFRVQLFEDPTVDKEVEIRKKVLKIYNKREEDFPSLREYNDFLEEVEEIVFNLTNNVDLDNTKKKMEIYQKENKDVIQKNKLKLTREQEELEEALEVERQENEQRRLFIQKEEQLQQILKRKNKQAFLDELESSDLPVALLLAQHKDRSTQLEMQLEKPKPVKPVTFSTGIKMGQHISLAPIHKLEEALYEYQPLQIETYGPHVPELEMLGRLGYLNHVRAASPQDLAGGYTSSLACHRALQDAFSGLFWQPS

[4] = CDK7 (20 nM enz.) (KI, μM), 20 nM enzyme
[5] = read-out: CDK7 (20 nM enz.) (kinact, s^−1), 20 nM enzyme
[6] = read-out: CDK7 (20 nM enz.) (kinact/KI, M^−1*s^−1), 20 nM enzyme
[7] = read-out: CDK7 (20 nM enz.) (kobs/[I], M^−1*s^−1), 20 nM enzyme

IC50 [1] [nM]	IC50 [2] [nM]	Ki [3, 4] [µM]	kinact [3, 5] [s⁻¹]	kinact/KI [3, 6] [M⁻¹ s⁻¹]	SMILES	also measured
> 10000	> 10000	–	–	–	C=CC(=O)N1CCC(N2CC[C@H](O)[C@@H](c3ccc4c(c3)OCc3c(N5CCOCC5)ccnc3N4)C2)CC1 (mixture of isomers) [Compound 157]	–
> 10000	1450	–	–	–	C=CC(=O)N1CC(N2CCN(C)[C@H](c3ccc4c(c3)Nc3nccc(N5CCOCC5)c3CO4)C2)C1 (single isomer, unassigned) [Compound 142]	–
> 10000	> 10000	–	–	–	C=CC(=O)N1CC(N2CCN(C)[C@@H](c3ccc4c(c3)Nc3nccc(N5CCOCC5)c3CO4)C2)C1 (single isomer, unassigned) [Compound 144]	–
–	–	1.4	5.53e-05	39.4	C=CC(=O)N1CC(N2CCC(c3cc4c(cn3)O[C@@H](C)c3c(N5CCOCC5)ccnc3N4)CC2)C1 (single isomer, unassigned) [Compound 172]	–
> 10000	38	–	–	–	C=CC(=O)N1CC[C@@H](N2CCC(c3cc4c(c(C)n3)OCc3c(-c5cnn(C)c5)ccnc3N4)CC2)C1 (single isomer, unassigned) [Compound 182]	–
> 10000	81.3	–	–	–	C=CC(=O)N1CC[C@H](N2CCC(c3cc4c(c(C)n3)OCc3c(-c5cnn(C)c5)ccnc3N4)CC2)C1 (single isomer, unassigned) [Compound 185]	–
> 10000	100	–	–	–	C#CCCN(C)C/C=C/C(=O)N1CC(N2CCC(c3ccc4c(c3)Nc3nccc(C5CCOCC5)c3[C@@H](C)O4)CC2)C1 (single isomer, unassigned) [Compound 186]	–
> 10000	4070	–	–	–	C#CCCN(C)C/C=C/C(=O)N1CC(N2CCC(c3ccc4c(c3)Nc3nccc(C5CCOCC5)c3[C@H](C)O4)CC2)C1 (single isomer, unassigned) [Compound 187]	–
> 10000	129	–	–	–	C#CCCN(C)C/C=C/C(=O)N1CC(N2CCC(c3ccc4c(c3)Nc3nccc(N5CCOCC5)c3[C@H](C)O4)CC2)C1 (single isomer, unassigned) [Compound 195]	–
> 10000	100	–	–	–	C#Cc1cc2c(cc1C1CCN(C3CN(C(=O)C=C)C3)CC1)Nc1nccc(N3CCOCC3)c1[C@H](C)O2 (single isomer, unassigned) [Compound 209]	–
> 10000	8510	–	–	–	C#Cc1cc2c(cc1C1CCN(C3CN(C(=O)C=C)C3)CC1)Nc1nccc(N3CCOCC3)c1[C@@H](C)O2 (single isomer, unassigned) [Compound 210]	–
–	–	–	–	–	C#Cc1cc2c(cc1C1CCN(C3CN(C(=O)C=C)C3)CC1)Nc1nccc(N3CCOCC3)c1[C@H](C)O2 (single isomer, unassigned) [Compound 214]	CDK7_A549 mutant hCDK7(pIC50) ([1]; A549 cells overexpressing CDK7-mutant (C312S)): <5; kinact/KI [3, 7]: 417 M⁻¹ s⁻¹
> 10000	3160	–	–	–	C=CC(=O)N1CC(N2CC(c3cc4c(c(C)n3)O[C@@H](C)c3c(N5CCOCC5)ccnc3N4)C2)C1 (single isomer, unassigned) [Compound 271]	–
–	–	–	–	–	C=CC(=O)N1CC(N2CCC(c3ccc4c(c3)Nc3nccc(N5CCOCC5)c3[C@@H](C)O4)CC2)C1 (single isomer, unassigned) [compound 90]	kinact/KI [3, 7]: 1190 M⁻¹ s⁻¹
–	–	0.0278	5.15e-05	1850	C=CC(=O)N1CC(N2CCC(c3cc4c(cn3)O[C@H](C)c3c(N5CCOCC5)ccnc3N4)CC2)C1 (single isomer, unassigned) [compound 171]	–
–	–	0.0606	5.08e-05	839	C=CC(=O)N1CC[C@@H](N2CC(c3cc4c(c(C)n3)OCc3c(N5CCOCC5)ccnc3N4)C2)C1 (single isomer, unassigned) [compound 179]	–
–	–	0.0452	5.34e-05	1180	C=CC(=O)N1CC[C@H](N2CC(c3cc4c(c(C)n3)OCc3c(N5CCOCC5)ccnc3N4)C2)C1 (single isomer, unassigned) [compound 180]	–
–	–	2.63	3.59e-05	13.7	C=CC(=O)N1CC(N2CC(c3cc4c(cn3)O[C@@H](C)c3c(-c5cnn(C)c5)ccnc3N4)C2)C1 (single isomer, unassigned) [compound 300]	–
–	–	7.92	4.55e-05	5.74	C=CC(=O)N1CC[C@@H](N2CC(c3cc4c(c(C)n3)O[C@@H](C)c3c(-c5cnn(C)c5)ccnc3N4)C2)C1 (single isomer, unassigned) [compound 420]	–
–	–	0.0672	9.76e-05	1450	C=CC(=O)N1CC(N2CCC(c3cc4c(c(C)n3)O[C@H](C)c3c(C5CCOCC5)ccnc3N4)CC2)C1 (single isomer, unassigned) [compound 429]	–
–	–	0.186	–	–	CC#CC(=O)N1CC(N2CC(c3cc4c(c(C)n3)O[C@H](C)c3c(N5CCOCC5)ccnc3N4)C2)C1 (single isomer, unassigned) [compound 444]	CDK7 (20 nM enz.) (kinact, s^−1) ([3]; 20 nM enzyme): 4.506e-05 s⁻¹; CDK7 (20 nM enz.) (kinact/KI, M^−1*s^−1) ([3]; 20 nM enzyme): 242.644 M⁻¹ s⁻¹
–	–	–	–	–	C=CC(=O)N1CC(N2CCC(c3ccc4c(c3)Nc3nccc(N5CCOCC5)c3CO4)C(C)(C)C2)C1 (stereo not drawn) [Compound 41]	Ki ([3]; CDK7 (KI(μM)), […], 1 mM ATP, room temperature, averaged values over all measurements): 0.083 µM; kinact ([3]; read-out: CDK7 (kinact, s^−1), kinact = maximal rate of inactivation, 1 mM ATP, room temperature, averaged values over all measurements): 8.37e-05 s⁻¹; kinact/KI ([3]; read-out: CDK7 (kinact/KI, M^−1*s^−1), potency of irreversible covalent inhibitors, 1 mM ATP, room temperature, averaged values over all measurements): 1010 M⁻¹ s⁻¹
–	–	–	–	–	C=CC(=O)N1CC(N2CCC(c3cc(C)c4c(c3)Nc3nccc(N5CCS(=O)(=O)CC5)c3CO4)CC2)C1 [Compound 75]	kinact/KI [3, 7]: 1100 M⁻¹ s⁻¹
–	–	0.168	4.84e-05	287	C=CC(=O)N1CC(N2CCC(c3cc4c(c(C)n3)OCc3c(C5CCOCC5)ccnc3N4)CC2)C1 [compound 208]	–
–	–	–	–	–	C#CCCN(C)C/C=C/C(=O)N1CC(N2CCC(c3cc(Cl)c4c(c3)Nc3nccc(C5CCOCC5)c3CO4)CC2)C1 [compound 249]	kinact/KI [3, 7]: 1040 M⁻¹ s⁻¹
–	–	0.156	4.48e-05	287	C=CC(=O)N1CC(c2nc(C)c(-c3cc4c(c(C)n3)OCc3c(N5CCOCC5)ccnc3N4)c(C)n2)C1 [compound 277]	–
–	–	0.0237	5.03e-05	2120	C=CC(=O)N1CCC(N2CCC(c3cc4c(c(C)n3)OCc3c(N5CCOCC5)ccnc3N4)CC2)CC1 [compound 324]	–
–	–	0.204	6.25e-05	306	C=CC(=O)N1CC(N2CC(c3cc4c(c(P(C)(C)=O)n3)OCc3c(N5CCOCC5)ccnc3N4)C2)C1 [compound 331]	–
–	–	0.273	3.95e-05	144	C=CC(=O)N1CCC(n2ccc(-c3cc4c(c(C)n3)OCc3c(N5CCOCC5)ccnc3N4)cc2=O)CC1 [compound 419]	–
